Assay results reported in US20260231998A1, “COMPOSITIONS FOR MODULATING GUT MICROFLORA POPULATIONS, TREATMENT OF DYSBIOSIS AND DISEASE PREVENTION, AND METHODS FOR MAKING AND USING SAME” (PERSEPHONE BIOSCIENCES, INC., priority 2023, published 2026).

What was measured:
[1] = tested on: Bifidobacterium infantis strain PB-STR-093; test: Antibiotic susceptibility (MIC) of isolated strains, EFSA standards; type: cell-based; details: observed value
Description: In alternative embodiments the complete genome sequence of each organism is screened to ensure it contains no genes or pathogenicity island gene clusters encoding known virulence factors, toxins, or antibiotic resistance functions, using publicly available databases such as DBETH55 (for example, see Chakraborty A, et al. (2012) Nucleic Acids Res. 40:615-620) and VFDB56 (Chen L, et al. (2005) Nucleic Acids Res. 33:325-328). Each organism is evaluated by standard antibiotic sensitivity profile techniques such as broth microdilution susceptibility panels or plate-based methods such as disk diffusion method and antimicrobial gradient method (James H. Jorgensen and Mary Jane Ferraro 2009 Clinical Infectious Diseases 49:1749-1755). Such tests determine the minimal inhibitory concentration (MIC) of an antibiotic on microbial growth. Antibiotics evaluated include but are not limited to amoxicillin, amoxicillin/clavulanic acid, carbapenem, methicillin, ampicillin, gentamicin, metronidazole, vancomycin, and neomycin. MIC determinations of novel microbes are compared to published values for both sensitive and resistant related strains to make an assessment on sensitivity (CLSI Guideline M45: Methods for Antimicrobial Dilution and Disk Susceptibility Testing of Infrequently Isolated or Fastidious Bacteria. Wayne, PA; 2015) to determine possible relative increases in antibiotic resistance.

[2] = tested on: Bifidobacterium infantis strain PB-STR-093; details: expected value based on the EFSA standards; cited from earlier work
[3] = Growth (OD600) of isolated microbial strains on medium with different carbon sources; type: cell-based
Description: The growth of isolated strains is evaluated to determine their ability to consume carbon sources and produce specific metabolites. Strains are grown in a minimal media (for example 2 grams (2 ml fine) peptone water (peptone, 10 g/L sodium chloride, 5 g/L), 2 grams yeast extract, 2 grams NaHCO3, 0.1 g NaCl, 0.04 g K2HPO4, 0.04 g KH2PO4, 0.01 g MgSO4·7H2O, 0.01 g CaCl2·6H2O, 2 ml Tween 80, 10 g carbohydrate of choice, 10 μl vitamin K, 0.5 g cysteine, 0.5 g bile salts) that affords control over carbon source. Examples of carbon sources evaluated (independently or in combination) include but are not limited to glucose, lactose, galactose, fructose, xylose, galactooligosaccharides, fructooligosaccharides, xylooligosaccharides, lacto-N-tetraose, lacto-N-neotetraose, 2′-fucosyllactose, 3-fucosyllactose, 3′-sialyllactose, and 6′-sialyllactose. Growth is evaluated by determination of the OD600, which can be performed either on individual samples with a cuvette or tube-based spectrometer (for example the CO 75000™ colorimeter) or on multiple samples in a plate-based format using a plate reader (for example CYTATION 3™). In both cases, values are normalized based on signals from media alone.
Select bacteria were evaluated for their ability to consume different carbon sources to aid in selection of live biotherapeutic (probiotic) bacteria and combinations, mixes and consortia of bacteria as provided herein, and prebiotic combinations (see Table 6) used in compositions and methods as provided herein;

[4] = tested on: simulated gut environment; test: Simulated gut environment: community composition after introduction of bacteria and/or prebiotics (whole genome sequencing); type: cell-based, human; details: B. infantis combined with lacto-N-tetraose (LNT)
Description: The ability of a bacterial addition (representing a probiotic application) to shift the composition of the gut environment was evaluated through the introduction of Bifidobacterium infantis isolate PB-STR-093.
Fifteen different combinations were evaluated covering Bifidobacterium infantis, Bifidobacterium longum, Bifidobacterium breve, and Bifidobacterium bifidum (shown in table 31, where the numerical value for each combination represents the ratio of the microbe in the combination). […] Compositions were also evaluated for their ability to reduce pathogenic species, as well as their metabolic output.

[5] = tested on: Streptococcus vestibularis; test: Simulated gut environment: levels of potentially pathogenic bacteria; type: cell-based; details: LNT as carbon source together with B. infantis
Description: (§1) To understand the applicability of in vitro observations to the human gut, strains are evaluated in the context of a simulated gut environment. These gut environments are produced with minimal media and seeded with FMT aliquots (Example 2) to reproduce an environment that represents the gut. In these environments, the introduction of prebiotics (in the form of carbon sources, nitrogen sources, and other small molecules) and the introduction of bacteria can be used to shift the community composition, metabolic output, and immunological impact of the gut environments. This allows prebiotic, probiotic, and synbiotic (prebiotic and, probiotic) combinations to be rapidly evaluated to confirm or reject observations determined in simpler systems such as single strain microbial cultures. In subsequent embodiments, machine learning will be used to further reduce the space that must be explored experimentally.

Escherichia coli = test: as above; type: cell-based; details: LNT as carbon source together with B. infantis
Description: as §1

| Molecule | Observed Antibiotic MIC [1] [µg/mL] | Expected Antibiotic MIC [2] [µg/mL] | further results |
| --- | --- | --- | --- |
| CC1(C)S[C@@H]2[C@H](NC(=O)[C@H](N)c3ccccc3)C(=O)N2[C@H]1C(=O)O [Ampicillin] | 2 | 2 | – |
| Bacteroides fragilis | – | – | OD(600) after 24 hours growth ([3]; carbon source 2′-FL): 0.261; OD(600) after 24 hours growth ([3]; carbon source 3′-SL): 0.457; OD(600) after 24 hours growth ([3]; carbon source FOS): 0.433; OD(600) after 24 hours growth ([3]; carbon source GOS): 0.325; OD(600) after 24 hours growth ([3]; carbon source Glucose): 0.353; OD(600) after 24 hours growth ([3]; carbon source LNT): 0.337; OD(600) after 24 hours growth ([3]; carbon source Mucin): 0.186; OD(600) after 24 hours growth ([3]; carbon source XOS): 0.359; OD(600) after 24 hours growth ([3]; medium with No Carbohydrate): 0.073 |
| CCC[C@@H]1C[C@@H](C(=O)N[C@@H]([C@H]2O[C@H](SC)[C@H](O)[C@@H](O)[C@H]2O)[C@H](C)Cl)N(C)C1 [Clindamycin] | 0.125 | – | – |
| Gentamicin | 64 | 64 | – |
| [H]/N=C(/N)N[C@H]1[C@H](O)[C@@H](O)[C@H](O[C@@H]2O[C@@H](C)[C@](O)(C=O)[C@H]2O[C@@H]2O[C@@H](CO)[C@H](O)[C@@H](O)[C@@H]2NC)[C@@H](N/C(N)=N\[H])[C@@H]1O [Streptomycin] | 32 | 128 | – |
| CN(C)[C@@H]1C(O)=C(C(N)=O)C(=O)[C@@]2(O)C(O)=C3C(=O)c4c(O)cccc4[C@@](C)(O)[C@H]3C[C@@H]12 [Tetracycline] | 4 | – | – |
| O=C(N[C@H](CO)[C@H](O)c1ccc([N+](=O)[O-])cc1)C(Cl)Cl [Chloramphenicol] | 4 | 4 | – |
| CC(=O)N[C@H]1[C@H](O[C@H]2[C@@H](O)[C@@H](CO)O[C@@H](O[C@H]3[C@H](O)[C@@H](O)C(O)O[C@@H]3CO)[C@@H]2O)O[C@H](CO)[C@@H](O)[C@@H]1O[C@@H]1O[C@H](CO)[C@H](O)[C@H](O)[C@H]1O (some centres unmarked) [LNT, lacto-N-tetraose] | – | – | growth, engraftment and abundance of Bifidobacterium infantis in the sample [4]: further boosts the abundance of Bifidobacterium infantis; level of Streptococcus vestibularis in simulated gut environment [5]: further reduces the presence of these bacteria; level of Escherichia coli in simulated gut environment (Escherichia coli): further reduces the presence of these bacteria |
| CN[C@H](CC(C)C)C(=O)N[C@H]1C(=O)N[C@@H](CC(N)=O)C(=O)N[C@H]2C(=O)N[C@H]3C(=O)N[C@H](C(=O)N[C@H](C(=O)O)c4cc(O)cc(O)c4-c4cc3ccc4O)[C@H](O)c3ccc(c(Cl)c3)Oc3cc2cc(c3O[C@@H]2O[C@H](CO)[C@@H](O)[C@H](O)[C@H]2O[C@H]2C[C@](C)(N)[C@H](O)[C@H](C)O2)Oc2ccc(cc2Cl)[C@H]1O [Vancomycin] | 0.5 | 2 | – |
| CC[C@H]1OC(=O)[C@H](C)[C@@H](O[C@H]2C[C@@](C)(OC)[C@@H](O)[C@H](C)O2)[C@H](C)[C@@H](O[C@@H]2O[C@H](C)C[C@H](N(C)C)[C@H]2O)[C@](C)(O)C[C@@H](C)C(=O)[C@H](C)[C@@H](O)[C@]1(C)O [Erythromycin] | 1 | 1 | – |
